The values below come from patent US5077286A, “Beta-lactam derivatives of the 4-acylcephem sulphone and 3-acylpenam sulphone-type” (Farmitalia Carlo Erba S.r.l., priority 1988, dated 1991).

Data set [1] in a line: Chemical stability at 37° C., 0.05M pH 7.4 phosphate buffer (HPLC, time course of starting material depletion). It counts as physicochemical. The following applies: 0.05m phosphate buffer, 5% DMSO, 10 mM initial conc., read-out: Chemical stability t1/2 (converted). The protocol: (a) Chemical stability at 37° C., 0.05M pH 7.4 phosphate buffer (5% DMSO as solubilizing vehicle) was determined by following the time course of starting material depletion ([…] kinetics; 10 mM initial conc.) by HPLC analysis (stationary phase Whatman Partisphere 5 C18, 110×4.7 mm i.d., mobile phase A, pH 2.5 0.1M phosphate buffer; mobile phase B, 60:40 phase A/MeCN; UV detection at λ=254 nm;

Data set [2] has as its target T1, human leukocyte elastase (HLE) (Homo sapiens, UniProt P08246).
T1 construct: purchased Calbiochem Lot 702738
T1 sequence (P08246 30-267): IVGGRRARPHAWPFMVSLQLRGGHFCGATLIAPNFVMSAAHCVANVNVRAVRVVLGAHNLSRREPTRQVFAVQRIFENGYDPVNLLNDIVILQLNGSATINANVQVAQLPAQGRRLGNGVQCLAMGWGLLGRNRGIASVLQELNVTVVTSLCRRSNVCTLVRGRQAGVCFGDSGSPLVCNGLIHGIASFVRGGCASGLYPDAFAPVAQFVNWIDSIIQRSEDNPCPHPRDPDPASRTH
The experiment in a line: HLE-inhibition kinetic parameters (fluorescence, release of 7-amino-4-methylcoumarin from peptide substrate). In kind it is biochemical. The following applies: 37° C., 0.027M pH 7.4 phosphate buffer, 1% DMSO, 1% MeCN, NaCl (I=0.15); for Ki: read-out: HLE-inhibition kinetic parameters: Ki^ss (apparent dissociation constant of HLE-inhibitor complex at steady state); for koff: read-out: HLE-inhibition kinetic parameters: Koff (dissociation rate); for kon: read-out: HLE-inhibition kinetic parameters: Kon (rate of formation of the HLE complex). The protocol:
(b) Kinetic parameters of HLE (Calbiochem. Lot 702738) were determined at 37° C., 0.027M pH 7.4 phosphate buffer, 1% DMSO, 1% MeCN, NaCl (I=0.15), by monitoring the release of 7-amino-4-methylcoumarin (fluorence detection) from N-methoxysuccinyl-alanyl-propyl-valyl-7-amido-4-methylcoumarin as the substrate, according to the equations: [formula] wherein: [P], [I], [S]=product, inhibitor, and substrate concentration
Km=Michaelis constant for the enzyme-substrate pair (independently determined under the same experimental conditions).

Take `CO[C@H]1C(=O)N2C(C(=O)C(C)(C)C)=C(COC(C)=O)CS(=O)(=O)[C@H]12` [Compound 51, 3-Acetoxymethyl-4-tert-butylcarbonyl-(7α)-methoxy-3-cephem 1,1-dioxide]: the half-life at 10000 µM in data set [1] is 19.3 h. Besides, in data set [2], the Ki is 11 nM, the koff turned out to be 0.0026 s⁻¹ and the kon came to 20000 M⁻¹ s⁻¹.

`CO[C@H]1C(=O)N2C(C(=O)OC(C)(C)C)=C(COC(C)=O)CS(=O)(=O)[C@H]12` [Reference]: the half-life at 10000 µM in data set [1] is 3.2 h. Moreover, in data set [2], the Ki was determined as 18.4 nM, the koff came out at 0.0035 s⁻¹ and the kon is 9000 M⁻¹ s⁻¹.

The koff is the first-order rate constant of dissociation. By kon is commonly meant the second-order rate constant of association.
